# Publication PMC11555526, “Development of 2-Aminoadenine-Based Proteolysis-Targeting Chimeras (PROTACs) as Novel Potent Degraders of Monopolar Spindle 1 and Aurora Kinases” (ACS Pharmacology & Translational Science, 2024)
# Legend:
# TTK [1] = target: T1, TTK (Homo sapiens, UniProt P33981); assay: Immunoblot of TTK in naive MV4-11 cells; type: cell-based; design: endogenous in cells; host or cells: naive MV4-11; details: 6 h
# T1 sequence (P33981 1-857): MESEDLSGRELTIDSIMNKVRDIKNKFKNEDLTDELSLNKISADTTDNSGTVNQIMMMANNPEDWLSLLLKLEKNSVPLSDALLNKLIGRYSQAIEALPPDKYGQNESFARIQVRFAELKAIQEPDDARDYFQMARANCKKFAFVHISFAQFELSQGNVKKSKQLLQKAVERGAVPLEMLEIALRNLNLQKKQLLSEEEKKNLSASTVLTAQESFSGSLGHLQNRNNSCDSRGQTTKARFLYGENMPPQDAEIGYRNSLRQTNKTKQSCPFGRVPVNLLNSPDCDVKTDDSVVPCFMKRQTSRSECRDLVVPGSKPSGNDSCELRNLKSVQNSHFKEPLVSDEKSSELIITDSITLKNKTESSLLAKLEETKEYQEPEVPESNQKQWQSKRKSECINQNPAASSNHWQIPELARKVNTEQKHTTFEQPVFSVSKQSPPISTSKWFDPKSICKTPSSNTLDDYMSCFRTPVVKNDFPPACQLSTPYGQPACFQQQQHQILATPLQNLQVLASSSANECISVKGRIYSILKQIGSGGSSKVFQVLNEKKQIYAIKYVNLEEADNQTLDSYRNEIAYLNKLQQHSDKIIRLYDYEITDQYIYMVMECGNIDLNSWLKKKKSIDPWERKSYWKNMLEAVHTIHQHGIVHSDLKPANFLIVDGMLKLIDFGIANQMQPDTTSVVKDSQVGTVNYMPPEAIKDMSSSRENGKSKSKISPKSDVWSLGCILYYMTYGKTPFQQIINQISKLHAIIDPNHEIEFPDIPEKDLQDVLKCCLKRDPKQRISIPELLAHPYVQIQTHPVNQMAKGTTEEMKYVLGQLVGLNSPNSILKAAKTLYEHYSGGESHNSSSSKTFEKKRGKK
# Method: (§1) The cells were treated with compounds or vehicle for indicated time points and lysed in RIPA lysis buffer (50 mM HEPES pH 7.9, 140 mM NaCl, 1 mM EDTA, 1% Triton X-100, 0.1% SDS, 0.1% sodium deoxycholate) containing protease and phosphatase inhibitors (Sigma) for 20 min at 4 °C. Cell lysates were cleared by centrifugation, and protein concentration was determined with bicinchoninic acid assay. Equal amounts of protein per sample were separated by Bis-Tris-PAGE and transferred to PVDF membranes (Millipore). The membranes were blocked with 5% (w/v) nonfat dry milk in TBS-T [20 mM Tris–HCl, pH 7.5, 150 mM NaCl, 0.1% (v/v) Tween-20] for 1 h at room temperature and incubated with primary antibody at 4 °C overnight. Visualization was carried out using horseradish peroxidase (HRP)-labeled secondary antibodies and detected using a chemiluminescent HRP substrate (Millipore) in LAS3000 or LAS4000 mini (Fujifilm). Vinculin, GAPDH, or B-actin were used as a loading control. The loading control was probed along with the target antibody by cutting the membrane. For targets with similar molecular weights, the samples were run in duplicate and probed with their respective loading controls, although only one control was shown in the figure for all targets. The signal was quantified using ImageJ or Image Studio Lite against the corresponding loading controls. Antibodies used in this study were as follows: Aurora A/AIK (Cell Signaling Technology, 3092), Aurora B (Bethyl Laboratories, A300–431A), TTK (Santa Cruz Biotechnology, sc-56968), GAPDH (Cell Signaling Technology, 2118), B-Actin (Sigma, A5441), and Vinculin (Sigma, V9131).
# α GAPDH α Vinculin α B-Actin
# Figure S2: Cellular degradation studies of SF1-based compounds. […]
# GAPDH was used as a loading control. (E-
# Immunoblots of TTK and AURKB. Naive MV4-11 cells were treated with indicated concentration of 44 or 47 G)
# (E), 18 (F), and 14 or 20 (G) for 6 h and compared with vehicle treated cells. […]
# All HiBiT data are represented as a mean ±s.d. from n=2 replicates. […]
# TTK [2] = target: T1, TTK; assay: Immunoblot of TTK in HiBiT-TTK cells; type: cell-based; design: endogenous in cells; host or cells: naive MV4-11; details: 6 h, 10 µM
# Method: as §1, with “Antibodies used in this study were as follows: Aurora A/AIK (Cell Signaling Technology, 3092), Aurora B (Bethyl Laboratories, A300–431A), TTK (Santa Cruz Biotechnology, sc-56968), GAPDH (Cell Signaling Technology, 2118), B-Actin (Sigma, A5441), and Vinculin (Sigma, V9131).” left out
Compound,"relative TTK level (immunoblot quantification, vehicle = 1.00) (TTK [1]; 10 µM)","relative TTK level (immunoblot quantification, vehicle = 1.00) (TTK [1]; 0.01 µM)","relative TTK level (immunoblot quantification, vehicle = 1.00) (TTK [1]; 1 µM)","relative TTK level (immunoblot quantification, vehicle = 1.00) (TTK [2])"
CC(C)S(=O)(=O)c1ccccc1Nc1nc(Nc2ccc(N3CCN(C(=O)CCCC(=O)Nc4cccc5c4C(=O)N(C4CCC(=O)NC4=O)C5=O)CC3)cc2)nc2[nH]cnc12 (centres unmarked) [Compound 14],1.16,–,–,–
Cc1ncsc1-c1ccc(CNC(=O)[C@@H]2C[C@@H](O)CN2C(=O)[C@@H](NC(=O)CCCC(=O)N2CCN(c3ccc(Nc4nc(Nc5ccccc5S(=O)(=O)C(C)C)c5nc[nH]c5n4)cc3)CC2)C(C)(C)C)cc1 [Compound 44],0.67,1.00,1.00,–
Cc1ncsc1-c1ccc(CNC(=O)[C@@H]2C[C@@H](O)CN2C(=O)[C@@H](NC(=O)COCCOCC(=O)N2CCN(c3ccc(Nc4nc(Nc5ccccc5S(=O)(=O)C(C)C)c5nc[nH]c5n4)cc3)CC2)C(C)(C)C)cc1 [Compound 49],–,–,–,0.48
